Results published in ChEMBL document CHEMBL1131928, “On the relationship of OSW-1 to the cephalostatins” (1999).
Where a name gives a salt, the structure may show the parent alone.

How the values were obtained:
Type in all cases: functional
Settings in all cases: Homo sapiens, read-out: ED50 (the source's name)
[1] = test system: PC-3; assay: Cytotoxicity against PC-3 cell line in the purdue cell culture screen was determined
[2] = test system: A549; assay: Cytotoxicity against A-549 cell line in the purdue cell culture screen was determined
[3] = test system: MCF7; assay: Cytotoxicity against MCF-7 cell line in the purdue cell culture screen was determined
[4] = test system: NCI/ADR-RES; assay: Cytotoxicity against MCF-7ADR cell line in the purdue cell culture screen was determined
[5] = test system: MCF7R; assay: Cytotoxicity against MCF-7R cell line in the purdue cell culture screen was determined
[6] = test system: HT-29; assay: Cytotoxicity against HT-29 cell line in the purdue cell culture screen was determined
[7] = test system: A498; assay: Cytotoxicity against A-498 cell line in the purdue cell culture screen was determined
[8] = test system: MIA PaCa-2; assay: Cytotoxicity against PACA-2 cell line in the purdue cell culture screen was determined

SMILES | EC50 [1] [µM] | EC50 [2] [µM] | EC50 [3] [µM] | EC50 [4] [µM] | EC50 [5] [µM] | EC50 [6] [µM] | EC50 [7] [µM] | EC50 [8] [µM]
COc1cccc2c1C(=O)c1c(O)c3c(c(O)c1C2=O)C[C@@](O)(C(=O)CO)C[C@@H]3O[C@H]1C[C@H](N)[C@H](O)[C@H](C)O1 [DOXORUBICIN HYDROCHLORIDE] | 5.7 | 6.2 | 3.4 | 1.5 | 0.6 | 3.7 | 3.5 | 6.3
CC(=O)O[C@H]1CC[C@@]2(C)C(=CCC3[C@]4(C)CC(=O)[C@](O)([C@H](C)C5(CCC(C)C)OCCO5)[C@@]4(C)CC[C@@]32C)C1 (stereo not given in full) | 3.7 | 15 | 28 | 26 | 11 | 0.5 | 2.8 | 2.2
C[C@@H]1[C@]2(O[C@H]3C=C4[C@@H]5CC[C@H]6Cc7nc8c(nc7C[C@]6(C)[C@H]5C[C@@H](O)[C@]4(C)[C@]31O)C[C@@H]1CC[C@H]3C4=CC[C@@H]5[C@H](C)[C@@]6(OC[C@]45C(=O)C[C@@H]3[C@@]1(C)C8)OC(C)(C)C[C@H]6O)O[C@](C)(CO)C[C@H]2O [CEPHALOSTATIN 1] | 1.4 |  |  | 4.1 |  |  |  | 4
CC(C)CCC1([C@@H](C)[C@@]2(O)C(=O)C[C@@]3(C)C4CC[C@@]5(C)C[C@@H](O)CC[C@]5(C)[C@@]4(C)CC[C@@]32C)OCCO1 (stereo not given in full) | 43 | 17 | 5.6 | 13 | 6.5 | 2.1 | 2.4 | 23
CC(C)CCC1([C@@H](C)[C@@]2(O)[C@@H](O)C[C@@]3(C)C4CC[C@@]5(C)Cc6nc7c(nc6C[C@]5(C)[C@@]4(C)CC[C@]23C)C[C@]2(C)CCC3C4=C[C@@H]5OC6(CC(C)(C)CO6)[C@@H](C)[C@@H]5[C@@]4(C)[C@H](O)C[C@]3(C)[C@@]2(C)C7)OCCO1 (stereo not given in full) | 0.3 | 0.1 |  |  | 1 | > 2.6 | 3.1 | > 2.2
CC(=O)O[C@H]1CC[C@@]2(C)C(=CCC3[C@]4(C)C[C@H](O)[C@](O)([C@H](C)C5(CCC(C)C)OCCO5)[C@@]4(C)CC[C@@]32C)C1 (stereo not given in full) | 10 | 15 | > 60 | > 64 | 33 | 4.8 | 2.8 | 11
CC(C)CCC(=O)[C@@H](C)[C@@]1(O)C(=O)C[C@@]2(C)C3CC[C@@]4(C)C[C@@H](O)CC[C@]4(C)[C@@]3(C)CC[C@@]21C (stereo not given in full) | 5.6 | 105 | 130 | 100 | 55 | 1.6 | 19.3 | 30
CC(C)CCC1([C@@H](C)[C@@]2(O)[C@H](O)C[C@@]3(C)C4CC[C@@]5(C)C[C@@H](O)CC[C@]5(C)[C@@]4(C)CC[C@]23C)OCCO1 (stereo not given in full) | 39 | 13 | 2.4 | 28 | 7.1 | 3 | 1.7 | 6.4
CC(C)CCC1([C@@H](C)[C@@]2(O)[C@@H](O)C[C@@]3(C)C4CC[C@@]5(C)C[C@@H](O)CC[C@]5(C)[C@@]4(C)CC[C@]23C)OCCO1 (stereo not given in full) | 0.4 | 0.34 |  |  | 1.6 | 0.58 | 1.3 | 1.2
CC(C)CCC1([C@@H](C)[C@@]2(O)[C@@H](O)C[C@@]3(C)C4CC[C@]5(C)Cc6nc7c(nc6C[C@]5(C)[C@]4(C)CC[C@]23C)C[C@@]2(C)CCC3[C@@H]4C[C@@H]5OC6(O[C@](C)(CO)C[C@H]6O)[C@@H](C)[C@]5(O)[C@@]4(C)[C@H](O)C[C@]3(C)[C@@]2(C)C7)OCCO1 (stereo not given in full) | 1.1 | 2.9 |  |  | 0.62 | 0.22 | 1.1 | 2.4
CC(=O)O[C@H]1CC[C@@]2(C)[C@@](C)(CCC3[C@]2(C)CC[C@]2(C)[C@@](O)([C@H](C)C4(CCC(C)C)OCCO4)[C@H](O)C[C@@]32C)C1 (stereo not given in full) | 17 | 30 | 23 | 42 | 31 | 29 | 16 | 23
CC(C)CCC(=O)[C@@H](C)[C@@]1(O)[C@H](O)C[C@@]2(C)C3CC[C@@]4(C)C[C@@H](O)CC[C@]4(C)[C@@]3(C)CC[C@]12C (stereo not given in full) | 43 | 17 | 5.6 | 13 | 6.5 | 2.1 | 2.4 | 23
CO/N=C1\C[C@]2(C)CCC3C4=C[C@@H]5OC6(CC(C)(C)CO6)[C@@H](C)[C@@H]5[C@@]4(C)[C@H](O)C[C@]3(C)[C@@]2(C)C[C@H]1N (stereo not given in full) | 14 | 5.9 | 14 | 76 |  | 7.8 | 3.1 | 14
CC(=O)O[C@H]1CC[C@@]2(C)[C@@](C)(CCC3[C@]2(C)CC[C@@]2(C)[C@@]3(C)CC(=O)[C@]2(O)[C@H](C)C2(CCC(C)C)OCCO2)C1 (stereo not given in full) | 580 | 31 | 39 | 70 | 89 | 7.5 | 15 | 88
